Experimental data from PMC12444516, “Broad Substrate Specificity and High Catalytic Activity of Sphingomonadaceae PhoK-Type Phosphatases Implicated in Flame-Retardant Degradation” (ACS Omega, 2025).
Like-named read-outs stand apart in the source and are kept apart here.

How the values were obtained:
Sb-PhoK [1] = system: T1, Sb-PhoK; format: biochemical, Sphingobium sp. TCM1; conditions: read-out: p-nitrophenyl phosphate (1) / K m
T1 construct: predicted Sec/SPI signal peptide; ~2 Zn per protein

SmTDK1-PhoK [2] = system: T2, SmTDK1-PhoK; format: biochemical, Sphingomonas sp. TDK1; conditions: read-out: p-nitrophenyl phosphate (1) / K m
T2 construct: synthetic codon-optimised gene in pET29a with native stop codon, untagged; E. coli BL21(DE3); ammonium sulfate, Resource Q flow-through, S200; predicted Sec/SPI signal peptide

No-PhoK [3] = system: T3, No-PhoK; format: biochemical, Novosphingobium sp. EMRT-2; conditions: read-out: p-nitrophenyl phosphate (1) / K m
T3 construct: predicted Sec/SPI signal peptide

SmSRS2-PhoK [4] = system: T4, SmSRS2-PhoK; experiment: UV/vis, p-nitrophenol release at […] nm, initial rates; format: biochemical, Sphingomonas sp. SRS2; conditions: 50 mM Ches pH 9.0; read-out: p-nitrophenyl phosphate (1) / K m
T4 construct: predicted Sec/SPI signal peptide; from a smaller PhoK cluster outside the main Sphingomonadaceae cluster

St-PhoK [5] = system: T5, St-PhoK; format: biochemical, Sphingopyxis terrae; conditions: read-out: p-nitrophenyl phosphate (1) / K m
T5 construct: predicted Sec/SPI signal peptide; also printed Sp-PhoK

St-PhoK [6] = conditions: read-out: phenyl phosphate (2) / K m
SmTDK1-PhoK [7] = conditions: read-out: phenyl phosphate (2) / K m
SmSRS2-PhoK [8] = system: T4, SmSRS2-PhoK; experiment: UV/vis, phenol release at […] nm, initial rates; format: biochemical, Sphingomonas sp. SRS2; conditions: 50 mM Ches pH 9.0; read-out: phenyl phosphate (2) / K m
No-PhoK [9] = conditions: read-out: phenyl phosphate (2) / K m
Sb-PhoK [10] = conditions: read-out: phenyl phosphate (2) / K m
purified protein [11] = substrate: O=P(O)(O)Oc1ccccc1; experiment: purified protein; format: biochemical, Sphingomonas sp.; conditions: 50 mM Ches pH 9.0
purified protein [12] = substrate: O=[N+]([O-])c1ccc(OP(=O)(O)O)cc1; experiment: purified protein; conditions: 50 mM Ches pH 9.0

O=[N+]([O-])c1ccc(OP(=O)(O)O)cc1 [compound 1, p-nitrophenyl phosphate]
Km (Sb-PhoK [1]): 69 ± 2 µM | Km (SmTDK1-PhoK [2]): 450 ± 10 µM | Km (No-PhoK [3]): 153 ± 5 µM | Km (SmSRS2-PhoK [4]): 88 ± 4 µM | Km (St-PhoK [5]): 78 ± 3 µM

O=P(O)(O)Oc1ccccc1 [compound 2, phenyl phosphate]
Km (St-PhoK [6]): 81 ± 5 µM | Km (SmTDK1-PhoK [7]): 600 ± 20 µM | Km (SmSRS2-PhoK [8]): 104 ± 5 µM | Km (No-PhoK [9]): 300 ± 20 µM | Km (Sb-PhoK [10]): 650 ± 30 µM

B1: Sm-PhoK (Sphingomonas sp.) (protein)
chain: QSPAPAAAPAPAARSIAATPPKLIVAISVDQFSADLFSEYRQYYTGGLKRLTSEGAVFPRGYQSHAATETCPGHSTILTGSRPSRTGIIANNWFDLDAKREDKNLYCAEDESQPGSSSDKYEASPLHLKVPTLGGRMKAANPATRVVSVAGKDRAAIMMGGATADQVWWLGGPQGYVSYKGVAPTPLVTQVNQAFAQRLAQPNPGFELPAQCVSKDFPVQAGNRTVGTGRFARDAGDYKGFRISPEQDAMTLAFAAAAIENMQLGKQAQTDIISIGLSATDYVGHTFGTEGTESCIQVDRLDTELGAFFDKLDKDGIDYVVVLTADHGGHDLPERHRMNAMPMEQRVDMALTPKALNATIAEKAGLPGKKVIWSDGPSGDIYYDKGLTAAQRARVETEALKYLRAHPQVQTVFTKAEIAATPSPSGPPESWSLIQEARASFYPSRSGDLLLLLKPRVMSIPEQAVMGSVATHGSPWDTDRRVPILFWRKGMQHFEQPLGVETVDILPSLAALIKLPVPKDQIDGRCLDLVAGKDDSCAGQ
notes: predicted Sec/SPI signal peptide; binuclear Zn site, nucleophile T89
Km (purified protein [11]): 600 ± 20 µM | kcat (purified protein [11]): 1100 ± 10 s⁻¹ | kcat/Km (purified protein [11]): 1.84e+06 ± 60000 M⁻¹ s⁻¹ | Km (purified protein [12]): 174 ± 4 µM
